Test results: US8865158B2, “Bacteriophages for reducing toxicity of bacteria” (priority 2012, dated 2014)
Converted amounts (≈) assume the structure as drawn. Where two headings read alike, the source gives them in different places.

How the values were obtained:
pathogenic E. coli = conditions: 36 pathogenic E. coli resistant to high levels of nalidixic acid; cited from earlier work
[1] = tested on: E. coli K-12 nalidixic acid-resistant mutants, Nal1-8; assay: MIC determination to nalidixic acid, resistant mutants; format: cell-based; conditions: Escherichia coli
Description: Table 3 recites E. coli K-12 nalidixic acid-resistant mutants, Nal1-8, isolated on 50 μg/ml nalidixic acid. Substitutions in the GyrA protein are indicated, as well as the MIC to nalidixic acid.
(§1) Over twenty different overnight cultures of a total of ˜10^11 E. coli K-12 cells were inoculated on Luria-Bertani (LB)-agar plates containing 50 μg/ml streptomycin or 50 μg/ml nalidixic acid. Resistant mutants emerged, in both cases, at a median frequency of ˜1 in 10^9 CFU, and were picked from different cultures, to reduce the occurrence of sibling mutants. These bacteria were streaked on an agar plate containing the appropriate antibiotic. The rpsL or gyrA genes of resistant mutants emerging on the plate were PCR-amplified followed by DNA sequencing.
(§2) MIC determination was carried out by following the procedure described by Wiegand et al. (19). Briefly, bacterial cells were grown overnight at 32° C. in LB and diluted to 10^7-10^9 CFU/ml. The obtained suspension was serially diluted 10-fold for different spot concentrations, as indicated. Approximately 1 μl of bacterial suspension was then spotted onto selection plates containing different concentrations of either streptomycin or nalidixic acid along with the appropriate selection agent (chloramphenicol or tellurite), as indicated, using a 48-pin replicator. Plates were incubated overnight and photographed using MiniBis Pro (Bio-Imaging Systems). Photographs were digitally manipulated using GIMP2 software to adjust contrast. Liquid-based MIC determination assays were carried out by inoculating serial dilutions of an antibiotic in liquid LB broth with bacterial cultures (OD600 ˜0.05) in 96-well microtiter plates. Plates were incubated overnight at 32° C. and OD600 was then measured. The lowest antibiotic concentration at which the relative growth compared to the “no-drug” control was below 10% was determined as the MIC.

[2] = tested on: E. coli K-12 parental strain; assay: MIC to streptomycin of the parental strain; format: cell-based; conditions: Escherichia coli
Description: MIC determination was carried out by following the procedure described by Wiegand et al. (19). Briefly, bacterial cells were grown overnight at 32° C. in LB and diluted to 10^7-10^9 CFU/ml. The obtained suspension was serially diluted 10-fold for different spot concentrations, as indicated. Approximately 1 μl of bacterial suspension was then spotted onto selection plates containing different concentrations of either streptomycin or nalidixic acid along with the appropriate selection agent (chloramphenicol or tellurite), as indicated, using a 48-pin replicator. Plates were incubated overnight and photographed using MiniBis Pro (Bio-Imaging Systems). […] Plates were incubated overnight at 32° C. and OD600 was then measured. […]
Minimum inhibitory concentration (MICs) to streptomycin were determined by agar-plate assay (19). […] The MICs throughout the study were also measured in a complementary liquid-determination assay, giving a similar readout (not shown). […] These strains were transformed with the plasmid pRpsL-wt, encoding the wt rpsL, or a control plasmid, pRpsLΔ4, encoding a mock gene (a defective rpsL with a 4-bp deletion that disrupts the reading frame after amino acid 26 of the RpsL protein; see FIG. 1) under a modified early E. coli promoter from phage T7. […] The MICs of the transformed strains to streptomycin were then determined.

[3] = tested on: E. coli K-12 streptomycin-resistant mutants, Sm1-22; assay: MIC determination to streptomycin, agar-plate assay, resistant mutants; format: cell-based; conditions: Escherichia coli
Description: Table 2 recites the E. coli K-12 streptomycin-resistant mutants, Sm1-22, isolated on 50 μg/ml streptomycin. Substitutions in the RpsL protein are indicated, as well as the MIC to streptomycin.
as §1, §2
Minimum inhibitory concentration (MICs) to streptomycin were determined by agar-plate assay (19). In this assay, ˜10^4 cells are replica-plated on plates with different drug concentrations. The lowest concentration at which there is no visible colony-formation is defined as the MIC. The MICs throughout the study were also measured in a complementary liquid-determination assay, giving a similar readout (not shown). Two representatives of the most common streptomycin-resistant strains obtained above were taken for further study: strains Sm6 and Sm13, harboring mutations in rpsL leading to substitutions of R86S and K88R, respectively. […] These strains were transformed with the plasmid pRpsL-wt, encoding the wt rpsL, or a control plasmid, pRpsLΔ4, encoding a mock gene (a defective rpsL with a 4-bp deletion that disrupts the reading frame after amino acid 26 of the RpsL protein; see FIG. 1) under a modified early E. coli promoter from phage T7. Transformed cells were selected on agar plates supplemented with 35 μg/ml chloramphenicol, as the plasmid encodes chloramphenicol acetyl transferase, which confers chloramphenicol resistance. The MICs of the transformed strains to streptomycin were then determined.

E. coli = conditions: cited from earlier work

CCn1cc(C(=O)O)c(=O)c2ccc(C)nc21 [nalidixic acid]
MIC of nalidixic acid (pathogenic E. coli): ≥ 256 µg/mL
MIC ([1]; read-out: MIC to nalidixic acid, mutant Nal1, GyrA S83L): ≥ 50 µg/mL
MIC ([1]; read-out: MIC to nalidixic acid, mutant Nal2, GyrA S83L): ≥ 50 µg/mL
MIC ([1]; read-out: MIC to nalidixic acid, mutant Nal3, GyrA S83L): ≥ 50 µg/mL
MIC ([1]; read-out: MIC to nalidixic acid, mutant Nal4, GyrA D87G): 128 µg/mL (≈ 551 µM)
MIC ([1]; read-out: MIC to nalidixic acid, mutant Nal5, GyrA D87G): 128 µg/mL (≈ 551 µM)
MIC ([1]; read-out: MIC to nalidixic acid, mutant Nal6, GyrA D87G): 128 µg/mL (≈ 551 µM)
MIC ([1]; read-out: MIC to nalidixic acid, mutant Nal7, GyrA D87G): 128 µg/mL (≈ 551 µM)
MIC ([1]; read-out: MIC to nalidixic acid, mutant Nal8, GyrA D87G): 128 µg/mL (≈ 551 µM)

[H]/N=C(/N)N[C@H]1[C@H](O)[C@@H](O)[C@H](O[C@@H]2O[C@@H](C)[C@](O)(C=O)[C@H]2O[C@@H]2O[C@@H](CO)[C@H](O)[C@@H](O)[C@@H]2NC)[C@@H](N/C(N)=N\[H])[C@@H]1O [streptomycin]
MIC [2]: 1.56 µg/mL (≈ 2.68 µM)
MIC ([3]; read-out: MIC to streptomycin, mutant Sm1, RpsL P42S): ≥ 50000 µg/mL
MIC ([3]; read-out: MIC to streptomycin, mutant Sm3, RpsL K43N): ≥ 50000 µg/mL
MIC ([3]; read-out: MIC to streptomycin, mutant Sm4, RpsL R54S): ≥ 50000 µg/mL
MIC ([3]; read-out: MIC to streptomycin, mutant Sm5, RpsL R86S): ≥ 50000 µg/mL
MIC ([3]; read-out: MIC to streptomycin, mutant Sm6, RpsL R86S): 100000 µg/mL (≈ 172000 µM)
MIC ([3]; read-out: MIC to streptomycin, mutant Sm7, RpsL R86S): ≥ 50000 µg/mL
MIC ([3]; read-out: MIC to streptomycin, mutant Sm8, RpsL R86S): ≥ 50000 µg/mL
MIC ([3]; read-out: MIC to streptomycin, mutant Sm9, RpsL R86S): ≥ 50000 µg/mL
MIC ([3]; read-out: MIC to streptomycin, mutant Sm10, RpsL R86S): ≥ 50000 µg/mL
MIC ([3]; read-out: MIC to streptomycin, mutant Sm11, RpsL K88E): ≥ 50000 µg/mL
MIC ([3]; read-out: MIC to streptomycin, mutant Sm22, no substitution in RpsL): ≥ 50000 µg/mL
MIC ([3]; read-out: MIC to streptomycin, resistant mutant Sm6 (R86S) without sensitizing construct): 100 µg/mL
MIC ([3]; read-out: MIC to streptomycin, resistant mutant Sm13 (K88R) without sensitizing construct): 200 µg/mL

O=[Te]([O-])[O-].[K+].[K+] [tellurite, potassium-tellurite (K2TeO3)]
MIC of tellurite (E. coli; E. coli either having or lacking the chromosomal tehAB genes): 2 µg/mL
MIC of tellurite (E. coli; cells harboring an extrachromosomal tehAB with an active promoter): 128 µg/mL
Increase of MIC of tellurite upon tehAB expression from an active promoter (E. coli; tehAB expressed from an active promoter (e.g. T7)): 50-100 fold
